These results are taken from patent US12329726B2, “Biomarkers for efficacy of prophylactic treatments against stress-induced affective disorders” (The Trustees of Columbia University in the City of New York, priority 2017, dated 2025).

Structures are written as SMILES.

The subject of assay [1] is plasma amino acid-derived neurotransmitters and precursors. In words: Separate plasma analysis of metabolites involved in neurotransmission, stressed mice. It is filed as in vivo.
The test system of assay [2] is treatment-resistant MDD (TRD) patients. To be noted: cited from earlier work.
Another assay relates to mouse models of stress. To be noted: cited from earlier work.
For assay [3], the system named is 129S6/SvEvTac mice. In words: 3-shock contextual fear conditioning (CFC), freezing. To be noted: ketamine 30 mg kg-1 i.p., single dose 1 week before 3-shock CFC; vs saline.
The subject of assay [4] is 129S6/SvEvTac mice. In words: Context exposure without shocks (no-shock control), freezing. To be noted: ketamine 30 mg kg-1 i.p., 1 week before context exposure without shocks; vs saline.
In assay [5] the test system is PFC metabolites. In words: Metabolomic profiling of PFC, non-stressed mice (ketamine, no shock).
Assay [6] deals with HPC metabolites. In words: Metabolomic profiling of HPC, non-stressed mice (ketamine, no shock). To be noted: context exposure group (no shock), following prophylactic ketamine administration.
In assay [7] the test system is plasma metabolites. In words: Metabolomic profiling of plasma, non-stressed mice (ketamine, no shock). To be noted: prophylactic ketamine, mice not administered shocks.
For assay [8], the system named is plasma metabolites. Put plainly: Untargeted metabolomic profiling of plasma, stressed mice (ketamine + CFC). To be noted: prophylactic ketamine + stress.
In assay [9] the test system is HPC metabolites. In words: Untargeted metabolomic profiling of hippocampus (HPC), stressed mice (ketamine + CFC).
For assay [10], the system named is PFC metabolites. Put plainly: Untargeted metabolomic profiling of prefrontal cortex (PFC), stressed mice (ketamine + CFC).
Assay [11] deals with T1, kappa-opioid receptor (KOR) (Rattus norvegicus, UniProt P34975).
T1 construct: host or cells: live rats (behavioural test)
To be noted: administered before the FPS test; cited from earlier work.

The mark [12] stands for this setting: Plasma, CFC group, following prophylactic ketamine administration.
The mark [13] stands for this setting: single injection 30 mg kg-1, 1 week before a stressor.
Setting [14] is: ketamine 30 mg/kg without CFC stress.
The mark [15] stands for this setting: HPC, CFC group, following prophylactic ketamine administration.
The mark [16] stands for this setting: prophylactic ketamine + stress, MetaboAnalyst 3.0.
The mark [17] stands for this setting: PFC, CFC group, following prophylactic ketamine administration.
Where [18] appears, read: prophylactic ketamine + stress, vs saline.

T1 sequence (P34975 whole entry): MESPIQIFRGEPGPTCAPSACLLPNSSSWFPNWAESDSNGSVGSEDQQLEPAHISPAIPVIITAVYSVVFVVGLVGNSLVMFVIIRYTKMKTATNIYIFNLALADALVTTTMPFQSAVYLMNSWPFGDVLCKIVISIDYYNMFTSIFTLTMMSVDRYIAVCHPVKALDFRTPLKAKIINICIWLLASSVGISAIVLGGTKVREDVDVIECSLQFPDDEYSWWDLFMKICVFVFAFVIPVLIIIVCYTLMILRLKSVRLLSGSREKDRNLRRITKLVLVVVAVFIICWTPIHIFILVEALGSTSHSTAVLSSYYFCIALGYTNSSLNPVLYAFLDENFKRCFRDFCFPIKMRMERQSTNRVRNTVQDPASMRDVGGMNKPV

Take `CNC1(c2ccccc2Cl)CCCCC1=O` (racemic) [ketamine, (RS)-2-(2-chlorophenyl)-2-(methylamino)cyclohexanone]: in [1] (setting [12]), the “5-Hydroxy-L-tryptophan (5-HTP) level, change” value is listed as “Increase”; the “D-Serine (Ser) level, change” value is on record as “Decrease”; the “Gamma-aminobuytric acid (GABA) level, change” value is “Decrease”; the “L-Glutamic acid (Glu) level, change” value is recorded as “Decrease”. Moreover, in assay [1] (setting [12]), the “N-Acetyl-L-tyrosine (NALT) level, change” value is reported as “Decrease” and the “O-Phosphoethanolamine (PE) level, change” value is listed as “Increase”. In addition, the “Plasma serine and glutamic acid (excitatory neurotransmitters)” value in assay [1] (prophylactic ketamine + stress) is “serine and glutamic acid were decreased”. For the same molecule, the “Persistence of antidepressant effects” value in assay [2] (following a single infusion) is on record as 1-2 weeks. For the same molecule, in assay [2] (single infusion, TRD patients), the Antidepressant onset is ≤ 2 h. The “Time window for prophylactic efficacy before a stressor” value in the assay on mouse models of stress (not 1 month or 1 hour before) was “approximately 1 week”. In addition, in the assay with mouse models of stress (setting [13]), the “Duration of protection after injection” value is listed as “up to 4 weeks”; the “Stress-induced depressive-like behavior and social avoidance behavior” value was “prevented stress-induced depressive-like behavior and social avoidance behavior”. Also, in the assay on 129S6/SvEvTac mice [3], the “Fear response (freezing) during context re-exposure” value is reported as “attenuated the fear response” and the “Freezing behavior during CFC encoding (training)” value was “did not alter freezing behavior during CFC encoding”. Also, the “Freezing behavior during context exposure or re-exposure, no shocks” value with 129S6/SvEvTac mice [4] is recorded as “did not alter freezing behavior during context exposure or re-exposure”. Also, in the assay with PFC metabolites [5] (setting [14]), the “Number of purine metabolites significantly altered in one hemisphere of PFC or HPC, no stress” value is listed as 3 metabolites and the “Number of pyrimidines significantly altered in one hemisphere of PFC or HPC, no stress” value stood at 2. Moreover, the “Purine metabolite changes in PFC and HPC without stress” value in the assay with PFC metabolites [5] (prophylactic ketamine without stress) was “these changes were not observed”. In addition, the “Amino acid-derived neurotransmitter metabolites in brain of non-stressed mice” value with PFC metabolites [5] (prophylactic ketamine, non-stressed mice) is “only the inhibitory neurotransmitter metabolite taurine was changed”. Besides, the “Taurine (Tau) level, change” value with HPC metabolites [6] is recorded as “Increase”. Moreover, the “Purine or pyrimidine metabolites in plasma, no shocks” value in the assay on plasma metabolites [7] is recorded as “no changes in purines or pyrimidine metabolites were observed”. For the same molecule, in the assay on plasma metabolites [8], the “Pathway analysis of changed metabolites in plasma” value is “purine metabolism, pyrimidine metabolism, the citrate cycle (TCA cycle), and the pentose phosphate pathway were most significantly changed”; the “Ribose and ribulose phosphate (pentose phosphate pathway intermediates) in plasma” value is recorded as “significantly changed”. Besides, the “Purine metabolites in the plasma” value in the assay on plasma metabolites [8] (vs saline) is “significantly increased purine metabolites”. For the same molecule, in the assay on plasma metabolites [8] (with the exception of 5,6-dihydrouridine), the “Pyrimidine metabolites in the plasma” value was “increased expression of pyrimidine metabolites”. Further, in the assay with HPC metabolites [9] (setting [15]), the “D-Alanine (Ala) level, change” value was “Increase”; the “Gamma-aminobuytric acid (GABA) level, change” value was “Increase”; the “L-Glutamic acid (Glu) level, change” value is “Increase”; the “O-Phosphoethanolamine (PE) level, change” value is “Increase”. In addition, the “Taurine (Tau) level, change” value in the assay on HPC metabolites [9] (setting [15]) is “Increase”. Further, in the assay on HPC metabolites [9] (setting [16]), the “Pathway analysis of changed metabolites in the HPC: further pathways” value is “altered alanine, aspartate, and glutamate metabolism; glutamine and glutamate metabolism; and taurine and hypotaurine metabolism”; the “Pathway analysis of changed metabolites in the HPC: purine metabolism” value is “purine metabolism was also significantly altered”. In addition, in the assay on PFC metabolites [10] (setting [17]), the “D-Serine (Ser) level, change” value is listed as “Decrease”; the “Glycine (Gly) level, change” value is given as “Decrease”; the “L-Tyrosine (Tyr) level, change” value is reported as “Decrease”; the “Phenylalanine (Phe) level, change” value was “Decrease”. Also, the “Correlation of dUDP expression in the PFC with freezing levels upon context re-exposure” value in the assay with PFC metabolites [10] (mice given prophylactic ketamine prior to stress, regression analysis) was “positively correlated with freezing levels”. Further, in the assay with PFC metabolites [10] (of the 8 changed, prophylactic ketamine + stress), the “Number of metabolites changed in the same direction in both hemispheres of the PFC and HPC” value came out at 6 metabolites. Further, in the assay on PFC metabolites [10] (prophylactic ketamine 30 mg kg-1 + CFC stressor, PFC and HPC), the “Number of metabolites changed in both hemispheres of the PFC and HPC” value was found to be 8 metabolites. In the assay with PFC metabolites [10] (setting [16]), the “Pathway analysis of changed metabolites in the PFC” value is “purine metabolism; phenylalanine, tyrosine, and tryptophan metabolism; and phenylalanine metabolism are most significantly changed”. Further, the “Levels of AMP and ATP in PFC, HPC and plasma” value in the assay with PFC metabolites [10] (prophylactic ketamine + stress, both hemispheres of PFC and HPC, and plasma) was “increases levels of adenosine monophosphate (AMP) and ATP”. Besides, the “Inhibitory neurotransmitter metabolites in PFC and HPC” value with PFC metabolites [10] (prophylactic ketamine + stress, e.g. alanine, GABA, taurine) is “almost all inhibitory neurotransmitter metabolites were increased”. Also, the “Excitatory neurotransmitter metabolites in PFC and HPC” value in the assay on PFC metabolites [10] (prophylactic ketamine + stress, e.g. serine, tyrosine, phenylalanine, exception glutamic acid) was “nearly all excitatory neurotransmitter metabolites were decreased”. Besides, in the assay with PFC metabolites [10] (setting [18]), the “Adenosine and guanosine metabolites in both hemispheres of PFC and HPC” value is recorded as “increased”; the “Inosine metabolites in both hemispheres of PFC and HPC” value is “decreased”.
For the molecule `Oc1ccc2c3c1O[C@H]1c4[nH]c5c(c4C[C@@]4(O)[C@@H](C2)N(CC2CC2)CC[C@]314)C[C@@]1(O)[C@H]2Cc3ccc(O)c4c3[C@@]1(CCN2CC1CC1)[C@H]5O4` [norBNI, nor-binaltorphimine], the “Conditioned fear in FPS test” value in assay [11] was “attenuated conditioned fear”.
